According to US20230203098A1, “HUMAN TRANSFERRIN RECEPTOR BINDING PEPTIDE” (priority 2020, published 2023):
Like-named read-outs stand apart in the source and are kept apart here. Blank lines part the entries; values can stand above or below the compound they belong to. Where a SMILES comes first, the peptide text is derived from it. Bridges are numbered along the chain shown (N, C = ends). [ ]: non-standard residue; d: D form. PEG12 = NCCOCCOCCOCCOCCOCCOCCOCCOCCOCCOCCOCCOCCC(=O)O; NMePhe(3-Cl) = CN[C@@H](Cc1cccc(Cl)c1)C(=O)O; NMeW = CN[C@@H](Cc1c[nH]c2ccccc12)C(=O)O; Phe(3-OMe) = COc1cccc(C[C@H](N)C(=O)O)c1; Phe(4-Cl) = N[C@@H](Cc1ccc(Cl)cc1)C(=O)O; Lys(N3) = [N-]=[N+]=NCCCC[C@H](N)C(=O)O; NMeY = CN[C@@H](Cc1ccc(O)cc1)C(=O)O; NMeF = CN[C@@H](Cc1ccccc1)C(=O)O; PEG4 = NCCOCCOCCOCCOCCC(=O)O; Nva = CCC[C@H](N)C(=O)O; Dap = NC[C@H](N)C(=O)O

Target: transferrin receptor (hTfR) (Homo sapiens, UniProt P02786)
Test: Intermolecular interaction evaluation test between transferrin receptor (hTfR) and peptide by surface plasmon resonance (SPR)
Type: binding
Outline: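 hTfR captured on Ni-NTA chip then amine-coupled; peptides run single-cycle kinetics at 5–100 nM in 10 mM HEPES pH 8.0, 150 mM NaCl, 0.05% Tween 20, 0.1% BSA, 1.0% DMSO. KD from least-squares curve fitting of sensorgrams.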

[1] = surface plasmon resonance, hTfR, read-out: KD value for hTfR by SPR (class symbol)
[2] = SPR, hTfR No. 894 variants with PEG12c linker (Table 2), read-out: KD
[3] = binding to hTfR by SPR, Table 2 peptides, read-out: KD value (SPR) class

Sequence of transferrin receptor (hTfR) (P02786 whole entry): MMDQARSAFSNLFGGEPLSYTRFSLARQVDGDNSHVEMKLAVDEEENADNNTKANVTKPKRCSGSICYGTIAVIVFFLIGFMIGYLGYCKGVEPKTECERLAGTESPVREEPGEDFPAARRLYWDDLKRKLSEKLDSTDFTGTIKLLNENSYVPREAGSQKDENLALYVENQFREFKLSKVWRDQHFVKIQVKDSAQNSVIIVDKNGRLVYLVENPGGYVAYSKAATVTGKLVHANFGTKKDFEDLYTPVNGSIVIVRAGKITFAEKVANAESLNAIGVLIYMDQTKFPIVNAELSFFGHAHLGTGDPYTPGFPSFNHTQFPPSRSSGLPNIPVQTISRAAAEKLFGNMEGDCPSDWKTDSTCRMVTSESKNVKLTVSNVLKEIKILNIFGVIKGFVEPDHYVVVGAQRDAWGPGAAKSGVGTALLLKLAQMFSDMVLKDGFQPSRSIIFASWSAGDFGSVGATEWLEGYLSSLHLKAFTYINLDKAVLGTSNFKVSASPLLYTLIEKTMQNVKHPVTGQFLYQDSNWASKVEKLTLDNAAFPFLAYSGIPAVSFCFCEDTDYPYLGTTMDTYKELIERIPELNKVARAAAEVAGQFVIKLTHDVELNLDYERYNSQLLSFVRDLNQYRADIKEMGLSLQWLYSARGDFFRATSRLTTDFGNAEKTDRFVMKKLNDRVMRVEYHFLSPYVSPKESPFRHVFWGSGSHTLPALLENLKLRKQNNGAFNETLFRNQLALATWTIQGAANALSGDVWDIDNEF

SMILES: CC[C@H](C)[C@@H]1NC(=O)[C@H](Cc2ccc(OC)cc2)NC(=O)[C@H](Cc2ccc(O)cc2)NC(=O)[C@H](CC(N)=O)NC(=O)[C@H](Cc2c[nH]c3ccccc23)N(C)C(=O)[C@H](C(C)C)NC(=O)[C@H](Cc2cccc(Cl)c2)N(C)C(=O)[C@H](CCC(=O)O)NC(=O)[C@H](C)NC(=O)CSC[C@@H](C(N)=O)NC(=O)[C@H](CCC(=O)O)NC(=O)[C@H](CCCNC(=N)N)NC(=O)[C@@H]2CCCN2C(=O)[C@H](C(C)C)NC1=O [compound 206] ({CH2CO}-AE[NMePhe(3-Cl)]V[NMeW]NYY(Me)IVPREC-NH2; thioether N-14)
- Kd (SPR, peptides, linker-added peptides and FITC conjugates, Patent ID 203-230, read-out: KD): 1 to 100 nM

SMILES: CC[C@H](C)[C@@H]1NC(=O)[C@H](Cc2ccc(O)cc2)NC(=O)[C@H](Cc2ccc(O)cc2)NC(=O)[C@H](CC(N)=O)NC(=O)[C@H](Cc2cccc(OC)c2)NC(=O)[C@H](C(C)C)NC(=O)[C@H](Cc2ccccc2)N(C)C(=O)[C@H](C(C)C)NC(=O)[C@H](C)NC(=O)CSC[C@@H](C(=O)NCCOCCOCCOCCOCCOCCOCCOCCOCCOCCOCCOCCOCCC(N)=O)NC(=O)[C@H](Cc2ccc(O)cc2)N(C)C(=O)[C@H](Cc2ccc(O)cc2)NC(=O)[C@H](CCCNC(=N)N)NC(=O)[C@H](CCCNC(=N)N)NC(=O)[C@H]([C@@H](C)CC)NC1=O [compound 113] ({CH2CO}-AV[NMeF]V[Phe(3-OMe)]NYYIIRRY[NMeY]C[PEG12]-NH2; thioether N-15)
- Kd [2]: < 1 nM

SMILES: CC[C@H](C)[C@@H]1NC(=O)[C@H](Cc2ccc(O)cc2)NC(=O)[C@H](Cc2ccc(Cl)cc2)NC(=O)[C@H](CC(N)=O)NC(=O)[C@H](Cc2c[nH]c3ccccc23)NC(=O)[C@H](C(C)C)NC(=O)[C@H](Cc2ccccc2)N(C)C(=O)[C@H](C(C)C)NC(=O)[C@H](C)NC(=O)CSC[C@@H](C(=O)NCC(=O)N[C@@H](CCCCN=[N+]=[N-])C(N)=O)NC(=O)[C@H](Cc2ccc(O)cc2)N(C)C(=O)[C@H](Cc2ccc(O)cc2)NC(=O)[C@H](CCCNC(=N)N)NC(=O)[C@H](CCCNC(=N)N)NC(=O)[C@H]([C@@H](C)CC)NC1=O [compound 277] ({CH2CO}-AV[NMeF]VWN[Phe(4-Cl)]YIIRRY[NMeY]CG[Lys(N3)]-NH2; thioether N-15)
- Kd [3]: 100 to 1000 nM

SMILES: CC[C@H](C)[C@@H]1NC(=O)[C@H](Cc2ccc(O)cc2)NC(=O)[C@H](Cc2ccc(O)cc2)NC(=O)[C@H](CC(N)=O)NC(=O)[C@H](Cc2c[nH]c3ccccc23)NC(=O)[C@H](C(C)C)NC(=O)[C@H](Cc2ccccc2)N(C)C(=O)[C@H](C(C)C)NC(=O)[C@H](C)NC(=O)CSC[C@@H](C(=O)NCCOCCOCCOCCOCCOCCOCCOCCOCCOCCOCCOCCOCCC(N)=O)NC(=O)[C@H](Cc2ccc(O)cc2)N(C)C(=O)[C@H](Cc2ccc(O)cc2)NC(=O)[C@@H](CCCNC(=N)N)NC(=O)[C@H](CCCNC(=N)N)NC(=O)[C@H]([C@@H](C)CC)NC1=O [compound 116]
- Kd [2]: 1 to 100 nM

SMILES: CC[C@H](C)[C@@H]1NC(=O)[C@H](Cc2ccc(O)cc2)NC(=O)[C@H](Cc2ccc(O)cc2)NC(=O)[C@H](CC(N)=O)NC(=O)[C@H](Cc2c[nH]c3ccccc23)NC(=O)[C@H](C(C)C)NC(=O)[C@H](Cc2ccccc2)N(C)C(=O)[C@H](C(C)C)NC(=O)[C@H](C)NC(=O)CSC[C@@H](C(=O)NCC(=O)NCC(=O)NCC(=O)N[C@@H](CO)C(=O)N[C@@H](CO)C(=O)N[C@@H](CCCCNC(=O)C2CCC(CN3C(=O)C=CC3=O)CC2)C(N)=O)NC(=O)[C@H](Cc2ccc(O)cc2)N(C)C(=O)[C@H](Cc2ccc(O)cc2)NC(=O)[C@H](CCCNC(=N)N)NC(=O)[C@H](CCCNC(=N)N)NC(=O)[C@H]([C@@H](C)CC)NC1=O (some centres unmarked) [compound 187]
- Kd (hTfR binding by SPR, hTfR No. 894 variant peptides, linker-added peptides and payload conjugates (Table 2), read-out: KD value obtained from the SPR measurement): 1 to 100 nM

SMILES: CC[C@H](C)[C@@H]1NC(=O)[C@H](Cc2ccc(O)cc2)NC(=O)[C@H](Cc2ccc(O)cc2)NC(=O)[C@H](CC(N)=O)NC(=O)[C@H](Cc2c[nH]c3ccccc23)NC(=O)[C@H](C(C)C)NC(=O)[C@H](Cc2ccccc2)NC(=O)[C@H](C(C)C)NC(=O)[C@H](C)NC(=O)CSC[C@@H](C(N)=O)NC(=O)[C@H](Cc2ccc(O)cc2)N(C)C(=O)[C@H](CCCNC(=N)N)NC(=O)[C@H](CCCNC(=N)N)NC(=O)[C@H](CCCNC(=N)N)NC(=O)[C@H]([C@@H](C)CC)NC1=O [compound 260]
- Kd [3]: 1 to 100 nM

Second part, the compound after the results:

- Kd [1]: 1 to 100 nM
SMILES: CC[C@H](C)[C@@H]1NC(=O)[C@H](Cc2ccc(OC)cc2)NC(=O)[C@H](Cc2ccc(O)cc2)NC(=O)[C@H](CC(N)=O)NC(=O)[C@H](Cc2c[nH]c3ccccc23)N(C)C(=O)[C@H](C(C)C)NC(=O)[C@H](Cc2cccc(Cl)c2)N(C)C(=O)[C@H](C(C)C)NC(=O)[C@H](C)NC(=O)CSC[C@@H](C(=O)NCCOCCOCCOCCOCCC(N)=O)NC(=O)[C@H](Cc2ccc(O)cc2)N(C)C(=O)[C@H](Cc2ccccc2)NC(=O)[C@@H](CCCNC(=N)N)NC(=O)[C@H](CN)NC(=O)[C@H]([C@@H](C)CC)NC1=O [compound 365] ({CH2CO}-AV[NMePhe(3-Cl)]V[NMeW]NYY(Me)II[Dap][dR]F[NMeY]C[PEG4]-NH2; thioether N-15)

- Kd (surface plasmon resonance, peptide vs hTfR, read-out: KD value, hTfR binding by SPR (class symbol)): 1 to 100 nM
SMILES: CCC[C@@H]1NC(=O)[C@H]([C@@H](C)CC)NC(=O)[C@H](Cc2ccc(OC)cc2)NC(=O)[C@H](Cc2ccc(O)cc2)NC(=O)[C@H](CC(N)=O)NC(=O)[C@H](Cc2c[nH]c3ccccc23)N(C)C(=O)[C@H](C(C)C)NC(=O)[C@H](Cc2cccc(Cl)c2)N(C)C(=O)[C@H](C(C)C)NC(=O)[C@H](C)NC(=O)CSC[C@@H](C(=O)NCCOCCOCCOCCOCCC(N)=O)NC(=O)[C@H](Cc2ccc(O)cc2)N(C)C(=O)[C@H](Cc2ccccc2)NC(=O)[C@@H](CCCNC(=N)N)NC(=O)[C@H](CCCNC(=N)N)NC1=O [compound 326] ({CH2CO}-AV[NMePhe(3-Cl)]V[NMeW]NYY(Me)I[Nva]R[dR]F[NMeY]C[PEG4]-NH2; thioether N-15)

- Kd (SPR, hTfR, class symbols A-D, read-out: KD): 100 to 1000 nM
SMILES: CC[C@H](C)[C@@H]1NC(=O)[C@H](Cc2ccc(OC)cc2)NC(=O)[C@H](Cc2ccc(O)cc2)NC(=O)[C@H](CC(N)=O)NC(=O)[C@H](Cc2c[nH]c3ccccc23)N(C)C(=O)[C@H](C(C)C)NC(=O)[C@H](Cc2ccncc2)N(C)C(=O)[C@H](C(C)C)NC(=O)[C@H](C)NC(=O)CSC[C@@H](C(N)=O)NC(=O)[C@H](Cc2ccc(O)cc2)N(C)C(=O)[C@H](Cc2ccccc2)NC(=O)[C@@H](CCCNC(=N)N)NC(=O)[C@H](CCCNC(=N)N)NC(=O)[C@H]([C@@H](C)CC)NC1=O [compound 451]

- Kd (SPR, hTfR, class symbols A-D, read-out: KD (column without head, continuation of the table series)): 1 to 100 nM
SMILES: CC[C@H](C)[C@@H]1NC(=O)[C@H](Cc2ccc(OCCN)cc2)NC(=O)[C@H](Cc2ccc(O)cc2)NC(=O)[C@H](CC(N)=O)NC(=O)[C@H](Cc2c[nH]c3ccccc23)NC(=O)[C@H](C(C)C)NC(=O)[C@H](Cc2ccccc2)N(C)C(=O)[C@H](C(C)C)NC(=O)[C@H](C)NC(=O)CSC[C@@H](C(N)=O)NC(=O)[C@H](Cc2ccc(O)cc2)N(C)C(=O)[C@H](Cc2ccccc2)NC(=O)[C@H](CCCNC(=N)N)NC(=O)[C@H](CCCCN)NC(=O)[C@H]([C@@H](C)CC)NC1=O [compound 521]

- Kd [1]: 1 to 100 nM
SMILES: CC[C@H](C)[C@@H]1NC(=O)[C@H](Cc2ccc(O)cc2)NC(=O)[C@H](Cc2ccc(O)cc2)NC(=O)[C@H](CC(N)=O)NC(=O)[C@H](Cc2c[nH]c3ccccc23)NC(=O)[C@H](C(C)C)NC(=O)[C@H](Cc2ccccc2)NC(=O)[C@H](C(C)C)NC(=O)[C@H](C)NC(=O)CCC[C@@H](C(N)=O)NC(=O)[C@H](Cc2ccc(O)cc2)N(C)C(=O)[C@H](Cc2ccc(O)cc2)NC(=O)[C@H](CCCNC(=N)N)NC(=O)[C@H](CCCNC(=N)N)NC(=O)[C@H]([C@@H](C)CC)NC1=O [compound 408]
